Measured values from ChEMBL document CHEMBL1133223, “Mechanistic studies on prolyl-4-hydroxylase: the vitamin C requiring uncoupled oxidation” (Bioorg Med Chem Lett, 2000).
Square brackets hold non-standard residues; d marks the D form. Peptide text beside a SMILES is read from it. * marks the point of attachment. ΔPro = O=C(O)[C@@H]1C=CCN1; Cbz = O=C(OCc1ccccc1)*

Experiments:
Format in all cases: ADME
[1] = Km by incubating with prolyl-4-hydroxylase under standard assay conditions
[2] = Percent Vmax by incubating with prolyl-4-hydroxylase under standard assay conditions
[3] = V/K by incubating with prolyl-4-hydroxylase under standard assay conditions

Km [1] [µM]	Vmax [2] [%]	V/K [3]	Compound
200	95	–	CCOC(=O)CNC(=O)[C@@H]1C=CCN1C(=O)[C@H](Cc1ccccc1)NC(=O)CNC(=O)OCc1ccccc1 (Cbz-GF[ΔPro]G-OEt)
200	100	–	O=C(O)CNC(=O)[C@@H]1CCCN1C(=O)[C@@H]1CCCN1 (H-Pro-Pro-Gly-OH)
520	30	3.4	CCOC(=O)CNC(=O)[C@@H]1CCCN1C(=O)[C@H](Cc1ccccc1)NC(=O)CNC(=O)OCc1ccccc1 (Cbz-GFPG-OEt)
